Values quoted from earlier work as cited in patent publication US9950023B1, “Composition for the treatment of acne” (Parham Tabibian, MD, Inc., priority 2014, dated 2018).

How the values were obtained:
[1] = system: biofilm-associated P. acnes; conditions: in vitro; concentrations as given in the label
interleukin-8 (IL-8) = conditions: dose-dependent manner
P. acnes biofilm = conditions: clinical tests, trans Resveratrol extracts

For `Oc1cc(Cl)ccc1Oc1ccc(Cl)cc1Cl` [0.1% triclosan, triclosan], the reducing biofilm mass [1] is listed as “effective”.
For `NC(=O)c1cccnc1` [Nicotinamide], the “interleukin-8 (IL-8) production” value (interleukin-8 (IL-8)) is listed as “decreasing interleukin-8 (IL-8) production in a dose-dependent manner”.
In the case of `Oc1ccc(C=Cc2cc(O)cc(O)c2)cc1` [Resveratrol], the “inhibition of P. acnes biofilm formation” value (P. acnes biofilm) is listed as 99.2%.
